{
  "source": "patent US20240238417A1",
  "about": "“METHODS OF PRODUCING TUMOR VACCINES AND USES THEREOF” (priority 2021, published 2024)",
  "key": {"LLC1 cells [1]": {"test_system": "LLC1 cells", "assay": "XTT viability of LLC1 cells after gas exposure in chamber", "assay_type": "cell-based", "settings": "10,000 ppm-25,000 ppm gNO for 3-15 minutes", "protocol": "In vitro systems: One system involves a direct exposure of cancer cells to gNO in 96-well plate. Gaseous NO at 150 ppm-50,000 ppm was delivered at 0.3 LPM for 10 seconds—3 minutes. In another system, cancer cells were exposed to gNO in a box made of acrylic glass. Gaseous NO at 10,000-50,000 ppm was delivered at 0.9 LPM for 10 seconds—15 minutes.\nThe exposure of the cancer cells to gNO was done after removing the cell culture medium.\n(§1) Immediately after gas exposure, cell culture medium was added, and the cells were incubated at a 37° C. and 5% CO2 incubator over-night. To test cell viability, XTT assay and Annexin V-Propidium Iodide assays were performed, according to known protocols.\nThe effect of continuous gaseous nitric oxide (gNO) at 10,000 ppm, 15,000 ppm, 20,000 ppm, or 25,000 ppm, compared to air (control), on the survival of LLC1 cancer cell line was tested. LLC1 cells were prepared in DMEM medium and suspended in 96-well plates. The plates were placed inside an approx. 2 liter exposure chamber. The plates were exposed to the gas by filling the chamber with gNO for 10 seconds, or 1, 3, 9 or 15 minutes. After exposure, the plates were placed in a 5% CO2, 37° C. incubator for an overnight incubation and the viability of the cells was tested by XTT assay."}, "CT26 tumor [2]": {"test_system": "CT26 tumor", "assay": "Local gNO treatment of CT26 tumor bearing mice, primary tumor", "assay_type": "in vivo", "protocol": "Mice: All in vivo experimental procedures were carried out in accordance with the protocol approved by the Ethics Committee on the Use and Care of Animals. Institutional Animal Care and Use Committee (IACUC): 67-09-2019 and IL-20-3-149. The in vivo assays were performed on Balb/c or C57BU6J mice: 7-10 weeks of age, obtained from Envigo (Ness-Ziona, Israel), unless otherwise indicated.\nInoculation of tumor cells: Cancer cell suspensions at a concentration of 2.5-10.0×10^6 cells/ml were inoculated to the right flank of mice at a dose volume of 0.1 ml. Administration was performed as soon as possible following cell suspension preparation and after manual shaking prior to inoculation. The cell suspension was then aspirated into a 1-ml syringe with a 27G needle for subcutaneous (s.c.) injection.\nTest article treatment: Mice were first anesthetized by an intraperitoneal (i.p) injection of 100 mg/kg ketamine and 20 mg/kg xylazine hydrochloride solution. After 10 minutes, tumor-bearing mice were treated with the indicated dose of gNO.\nIn all protocols, the gas was delivered from NO in N2 cylinders. The outlet pressure was set to 2-3.5 bar using a pressure regulator that was connected directly to the cylinder.\nIn protocols that involve administration by needle injection, a silicone hose was connected directly to the pressure regulator on one end and to a manual or digital MFC on the other end. The flow was adjusted to 0.05 LPM-0.25 LPM. An additional silicone hose was connected to the flow controller as well as to a 23G hypodermic needle. The needle was inserted horizontally into the center of each tumor.\nTumor volume calculation: Local tumor growth was determined by measuring 3 mutually orthogonal tumor dimensions 2-3 times per week, according to the following formula:\nor Tumor volume=Diameter 1× Diameter 2^2/2, unless otherwise indicated. Diameter 1 represents length, Diameter 2 represents width and Diameter 3 represents height.\nBALB/c female and male mice were obtained from Almog Diagnostic that purchased them from Envigo, Israel. The mice were 7-8 weeks of age. Animal care and experimentation were performed in accordance with the Bar-Ilan University guidelines.\nCT-26, a colon carcinoma cell line was induced in a BALB/c mouse by chemical carcinogenesis.\nCells were cultured in Roswell Park Memorial Institute (RPMI) 1640 supplemented with 100 U/ml penicillin, 100 μg/ml streptomycin, 2 mM L-glutamine; 1 mM sodium pyruvate; 1% non-essential amino acid solution; 10% fetal calf serum. Cultures were maintained at 37° C. in a humidified incubator with a 5% CO2 atmosphere.\nMice were inoculated subcutaneously with 5×10^5 CT-26 cells suspended in 100 μL Hank's Balanced Salt Solution (HBSS) into the low lateral side of the back. Local tumor growth was determined by measuring two mutually orthogonal tumor diameters with a caliper. The volume of the tumor was calculated using the formula: Vol=D1×D2×D2/2, where D1, D2 are two mutually orthogonal tumor diameters.\nAir-1 is a female Balb/c mouse that was treated twice. On day 0 the tumor volume was 64.85 mm^3.\nNO-1 is a female Balb/c mouse and was treated once. […] Then, the skin was removed from the tumor, and the tumor was re-exposed to gNO via a perforated flask filled with gNO using the same parameters.\nNO-2 is a male Balb/c mouse and was treated 3 times. On day 0 the tumor volume was 38.51 mm^3. Day 0—gNO at 50,000 ppm was administered for 3.8 minutes at a flow rate of 0.9 using a cap. Day 5: gNO at 10,000 ppm was administered for 30 minutes using a cap. Then, gNO was delivered intra-tumorally by a 23G needle such as shown in FIG. 11B at 0.3 LPM for another 10 minutes, using an intra-tumoral channel. The tip of the needle was directed at the outside area. Day 11: gNO at 10,000 ppm was delivered to the tumor for 5 minutes and at a flow rate of 0.3 LPM, using a 23G needle and an intra-tumoral channel.\nIn an additional set of experiments, aluminum disposable gas cylinders were used. […]"}, "LLC1 cells [3]": {"test_system": "LLC1 cells", "assay": "Annexin V-Propidium Iodide apoptosis-necrosis assay of LLC1 cells", "assay_type": "cell-based", "settings": "20,000 ppm or 50,000 ppm gNO for 3 minutes, overnight incubation", "protocol": "as §1\nIn an additional set of experiments, the plates were exposed to the gas (at 20,000 ppm or 50,000 ppm) by filling the chamber with gNO for 3 minutes. After exposure, the plates were placed in a 5% CO2, 37° C. incubator for an overnight incubation and the viability of the cells was tested via Annexin V—Propidium Iodide apoptosis-necrosis assay."}, "CT26 tumor [4]": {"test_system": "CT26 tumor", "assay": "Combined gNO and surgery, CT26 tumor recurrence", "assay_type": "in vivo, mice", "settings": "then excision", "protocol": "The following in vivo experimental procedures were carried out in accordance with the protocol approved by the Ethics Committee on the Use and Care of Animals. Institutional Animal Care and Use Committee (IACUC): IL-20-3-149.\nCT26 tumor-bearing mice were treated with 20,000 ppm and 50,000 ppm gNO intra-tumorally for 5 minutes. Up to fourteen days post gNO treatment, all tumors were excised, and the recurrence rate was monitored for 89 days post-excision. Tumor recurrence was detected 17 days post treatment."}},
  "data": [
    {"smiles": "[N]=O", "note": "[gNO, nitric oxide]", "values": [
      {"measurement": "viability of LLC1 cells", "setting": "LLC1 cells [1]", "value": "less than 5%"},
      {"measurement": "CT-26 tumor destruction", "setting": "CT26 tumor [2]; 10,000 ppm gNO, 0.9 LPM, 20 minutes in flask, 1-17 days post treatment", "value": 100, "unit": "%"},
      {"measurement": "tumor on photographs after treatment", "setting": "CT26 tumor [2]; 10,000 ppm gNO, 0.9 LPM, 20 minutes in flask, 1 minute, 9 days and 14 days post treatment", "value": "the tumor was destructed"},
      {"measurement": "cured mice", "setting": "CT26 tumor [2]; 25,000 ppm gNO intra-tumoral 15 minutes, 0.25 LPM, repeated a week later, 44 days post the first treatment", "value": 50, "unit": "%"},
      {"measurement": "mice with CT-26 tumor growth inhibition compared to air treatment", "setting": "CT26 tumor [2]; 50,000 ppm intra-tumoral 2-3 minutes 0.2 LPM, then 10,000 ppm 6 minutes intra-tumoral and 4 minutes to outer layer", "value": "⅔"},
      {"measurement": "tumor on photographs after treatment", "setting": "CT26 tumor [2]; 200,000 ppm gNO for 2 seconds, 0.01 LPM, 9 days after treatment", "value": "the tumor disappeared"},
      {"measurement": "size of air-treated tumor relative to gNO-treated tumors", "setting": "CT26 tumor [2]; CT26 tumors, 10,000-50,000 ppm gNO (mice NO-1, NO-2), 12 days post treatment 1", "value": "more than 30 times"},
      {"measurement": "LLC1 cells at late apoptosis", "setting": "LLC1 cells [3]", "value": "80%-90%"},
      {"measurement": "tumor recurrence", "setting": "CT26 tumor [4]; 20,000 ppm gNO intra-tumorally 5 minutes, 17 days post-surgery", "value": "about 18%"},
      {"measurement": "tumor recurrence", "setting": "CT26 tumor [4]; 50,000 ppm gNO intra-tumorally 5 minutes, 17 days post surgery", "value": 0, "unit": "%"}
    ]}
  ]
}
